Source: patent US20200131144A1, “AMINE OR (THIO)AMIDE CONTAINING LXR MODULATORS” (Phenex-FXR GmbH, priority 2017, published 2020)
Like-named read-outs stand apart in the source and are kept apart here.

Assays:
[1] = target: T1, GST-LXRβ ligand-binding domain (Homo sapiens, UniProt P55055, INS174Q); assay: TR-FRETβ activity assay (NCoA3 coactivator peptide recruitment); type: biochemical; conditions: 1 μM 24(S)-25-epoxycholesterol as prestimulating agonist; inverse agonist unless *
T1 construct: amino acids 156-461; NP009052; made in house; host or cells: E. coli
T1 sequence (P55055 with tags, fused parts or gaps INS174Q limits assumed): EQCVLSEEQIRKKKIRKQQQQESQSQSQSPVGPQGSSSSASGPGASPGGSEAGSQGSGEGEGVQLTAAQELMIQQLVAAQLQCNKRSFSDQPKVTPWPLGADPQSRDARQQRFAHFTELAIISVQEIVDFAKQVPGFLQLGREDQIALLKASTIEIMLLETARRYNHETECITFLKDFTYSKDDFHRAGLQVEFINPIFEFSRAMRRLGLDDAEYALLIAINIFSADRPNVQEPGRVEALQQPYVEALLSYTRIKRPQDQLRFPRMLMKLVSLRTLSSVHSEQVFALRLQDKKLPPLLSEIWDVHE
Method in brief: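 E. coli-expressed GST-LXRβ LBD (aa 156-461, 76 nM) with biotinylated NCoA3 peptide (400 nM), anti-GST-Tb cryptate donor and streptavidin-XL665 acceptor in 240 mM KCl, BSA, 0.002% Triton X-100. Equilibrated 1 h at 4° C; TR-FRET read at 615/665 nm, triplicates.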

[2] = Short term HFD mouse model: liver and plasma exposure after multiple oral dosing; type: in vivo, mice (C57BL/6J); conditions: C57BL/6J, HFD mice, 4 h after final dose; for Kp at 4 h: liver/plasma, read-out: liver/plasma ratio, 4 h
Description: Short Term HFD Mouse Model:
For this, C57BL/6J were purchased from Elevage Janvier (Rennes, France) at the age of 8 weeks. After an acclimation period of two weeks, animals were prefed on a high fat diet (HFD) (Ssniff Spezialdiäten GmbH, Germany, Surwit EF D12330 mod, Cat. No. E15771-34), with 60 kcal % from fat plus 1% (w/w) extra cholesterol (Sigma-Aldrich, St. Louis, Mo.) for 5 days. Animals were maintained on this diet during treatment with LXR modulators. The test compounds were formulated in 0.5% hydroxypropylmethylcellulose (HPMC) and administered in three doses (from 1.5 to 20 mg/kg each) by oral gavage according to the following schedule: on day one, animals received treatment in the morning and the evening (ca. 17:00), on day two animals received the final treatment in the morning after a 4 h fast and were sacrificed 4 h thereafter. Animal work was conducted according to the national guidelines for animal care in Germany.
Multiple oral dosing of compounds from the present invention in mice lead to a high liver exposure with a favourable liver to plasma ratio. […] These genes are related to hepatic de-novo lipogenesis. A suppression of these genes will reduce liver fat (liver triglycerides).

[3] = Pharmacokinetics in mice after single oral dosing, blood and liver exposure by LC-MS; type: in vivo, mice (C57/bl6/J); conditions: single oral dose 20 mg/kg; for Kp at 4 h / Kp at 12 h / Kp at 24 h: male, C57/bl6/J, mouse, liver/blood, read-out: liver/blood ratio
Method in brief: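 Male C57BL/6J mice fasted ≥12 h, given a single oral dose of 20 mg/kg (n=3 per group). Sacrifice at 4, 12 or 24 h post-dose; liver and blood levels quantified by LC-MS.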

[4] = liver, three oral doses of 10 mg/kg each, read-out: liver exposure, 4 h
[5] = three oral doses of 10 mg/kg each
[6] = plasma, three oral doses of 10 mg/kg each, read-out: plasma exposure, 4 h
[7] = liver, three oral doses of 20 mg/kg each, read-out: liver exposure, 4 h
[8] = three oral doses of 20 mg/kg each
[9] = plasma, three oral doses of 20 mg/kg each, read-out: plasma exposure, 4 h
[10] = liver, three oral doses of 1.5 mg/kg each, read-out: liver exposure, 4 h
[11] = three oral doses of 1.5 mg/kg each
[12] = plasma, three oral doses of 1.5 mg/kg each, read-out: plasma exposure, 4 h

| SMILES | EC50 [1] [nM] | concentration at 4 h [2, 4] [µM] | Kp at 4 h [2, 5] | concentration at 4 h [2, 6] [µM] | Kp at 4 h ([3]; time point 4 h) | blood/plasma exposure ([3]; time point 4 h) [µM] | liver exposure ([3]; time point 4 h) [µM] | concentration at 4 h [2, 7] [µM] | Kp at 4 h [2, 8] | concentration at 4 h [2, 9] [µM] | also measured |
| --- | --- | --- | --- | --- | --- | --- | --- | --- | --- | --- | --- |
| Cc1ccc2ccccc2c1C(=O)N(Cc1ccc(-c2cccc([C@@H](C)C(=O)O)c2)cc1)Cc1ccc(C(F)(F)F)o1 [10/5] | < 100 | 24.9 | 7.9 | 3.16 | 45 | 1.06 | 47.9 |  |  |  |  |
| Cc1ccc2ccccc2c1C(=O)N(Cc1ccc(-c2cc(F)c(CO)c(S(=O)(=O)CC(=O)O)c2)cc1)Cc1ccc(C(F)(F)F)o1 [22/8] | 1000 to 10000 |  |  |  | 19 | 1.3 | 23 | 2.82 | 55.7 | 0.051 | Kp at 12 h ([3]; time point 12 h): 27; blood/plasma exposure ([3]; time point 12 h): 0.15 µM; liver exposure ([3]; time point 12 h): 4.1 µM |
| COc1ccc2c(c1CN(Cc1ccc(-c3cccc(C(C)(C)C(=O)O)c3)cc1)Cc1ccc(C(F)(F)F)o1)CCCC2 [27/17] | 100 to 1000 | 6.8 | 2.3 | 2.92 |  |  |  |  |  |  |  |
| CCOC(=O)c1ccc(CN(Cc2ccc(-c3cccc(C(C)(C)C(=O)O)c3)cc2)C(=O)c2c(C)ccc3ccccc23)o1 [27/28] | < 100 |  |  |  | 844 | 0.05 | 38.8 | 13.8 | 1790 | 0.008 | concentration at 4 h [2, 10]: 4.3 µM; Kp at 4 h [2, 11]: 600; concentration at 4 h [2, 12]: 0.007 µM |
| Cc1ccc2ccccc2c1C(=O)N(Cc1ccc(-c2cccc(C(C)(C)C(=O)O)c2)cc1)Cc1ccc(C(F)F)o1 [27/36] | 100 to 1000 | 80.2 | 26.6 | 3.02 |  |  |  |  |  |  |  |
| Cc1ccc2ccccc2c1C(=O)N(Cc1ccc(-c2cccc(C(C)(C)C(=O)O)c2)cc1)Cc1ccc(C#N)o1 [27/38] | < 100 |  |  |  |  |  |  | 37.5 | 15.8 | 2.37 |  |
| COc1ccc2c(c1C(=O)N(Cc1ccc(-c3cccc(C(C)(C)C(=O)O)c3)cc1)Cc1ccc(C(F)(F)F)o1)CCCC2 [27/45] | < 100 | 320 | 367 | 0.871 |  |  |  |  |  |  |  |
| Cc1ccc2ccccc2c1C(=O)N(Cc1ccc(-c2cc(F)cc(C3(C(=O)O)CC3)c2)cc1)Cc1ccc(C(F)(F)F)o1 [27/76] | 100 to 1000 | 37.9 | 16.4 | 2.31 |  |  |  |  |  |  |  |
| Cc1ccc2ccccc2c1C(=O)N(Cc1ccc(-c2cccc(S(=O)(=O)CC(=O)O)c2)cc1)Cc1ccc(C(F)(F)F)o1 [Example 9] | 1000 to 10000 |  |  |  | 72 | 0.18 | 12.7 | 18.2 | 135 | 0.134 | Kp at 24 h ([3]; time point 24 h): 25; blood/plasma exposure ([3]; time point 24 h): 0.00 µM; liver exposure ([3]; time point 24 h): 0.10 µM |

Now from value to molecule, other results behind:

| EC50 [1] [nM] | concentration at 4 h [2, 4] [µM] | Kp at 4 h [2, 5] | concentration at 4 h [2, 6] [µM] | Kp at 4 h ([3]; time point 4 h) | blood/plasma exposure ([3]; time point 4 h) [µM] | liver exposure ([3]; time point 4 h) [µM] | concentration at 4 h [2, 7] [µM] | Kp at 4 h [2, 8] | concentration at 4 h [2, 9] [µM] | SMILES | also measured |
| --- | --- | --- | --- | --- | --- | --- | --- | --- | --- | --- | --- |
| 100 to 1000 |  |  |  |  |  |  |  |  |  | Cc1cc(C)c(C(=O)N(Cc2ccc(-c3cccc(C(C)(C)C(=O)O)c3)cc2)Cc2ccc(C(F)(F)F)o2)c(C)c1 [10/1] |  |
| < 100 |  |  |  |  |  |  | 14.8 | 52.5 | 0.281 | Cc1ccc2ccccc2c1C(=O)N(Cc1ccc(C(F)(F)F)o1)Cc1ccc(-c2cccc(C(C)(C)C(=O)O)c2)cc1C#N [27/7] |  |
| 100 to 1000 | 43.3 | 30 | 1.44 |  |  |  |  |  |  | Cc1ccc2ccccc2c1C(=O)N(Cc1ccc(-c2cccc(C(C)(O)C(=O)O)c2)cc1)Cc1ccc(C(F)(F)F)o1 (centres unmarked) [27/10] | concentration at 4 h ([2]; liver, three oral doses of 3 mg/kg each, read-out: liver exposure, 4 h): 9.93 µM; Kp at 4 h ([2]; three oral doses of 3 mg/kg each): 211; concentration at 4 h ([2]; plasma, three oral doses of 3 mg/kg each, read-out: plasma exposure, 4 h): 0.047 µM; Kp at 12 h ([3]; time point 12 h): 129; blood/plasma exposure ([3]; time point 12 h): 0.01 µM; liver exposure ([3]; time point 12 h): 1.3 µM |
| < 100 |  |  |  | 5.5 | 16 | 89 | 44.6 | 2.9 | 15.3 | Cc1ccc2ccccc2c1C(=O)N(Cc1ccc(-c2cccc(C(C)(C)C(=O)O)c2)cc1)Cc1ccc(C(F)(F)F)o1 [27/26] | concentration at 4 h [2, 10]: 6.73 µM; Kp at 4 h [2, 11]: 6.5; concentration at 4 h [2, 12]: 1.04 µM; Kp at 12 h ([3]; time point 12 h): 3.3; Kp at 24 h ([3]; time point 24 h): 3.6; blood/plasma exposure ([3]; time point 12 h): 6.4 µM; liver exposure ([3]; time point 12 h): 21 µM; blood/plasma exposure ([3]; time point 24 h): 0.75 µM; liver exposure ([3]; time point 24 h): 2.7 µM |
| 1000 to 10000 |  |  |  |  |  |  | 44.3 | 32.5 | 1.36 | CCc1nc2ccccc2c(C(=O)N(Cc2ccc(-c3cccc(C(C)(C)C(=O)O)c3)cc2)Cc2ccc(C(F)(F)F)o2)c1C [27/43] | Kp at 12 h ([3]; time point 12 h): 49; blood/plasma exposure ([3]; time point 12 h): 0.03 µM; liver exposure ([3]; time point 12 h): 1.3 µM |
| < 100 |  |  |  |  |  |  | 38.4 | 36 | 1.07 | CC(C)(C(=O)O)c1cccc(-c2ccc(CN(Cc3ccc(C(F)(F)F)o3)C(=O)c3c4ccccc4cc4ccccc34)cc2)c1 [27/47] |  |
| 100 to 1000 | 75.3 | 189 | 0.399 |  |  |  |  |  |  | COc1cc(-c2cccc(C(C)(C)C(=O)O)c2)ccc1CN(Cc1ccc(C(F)(F)F)o1)C(=O)c1c(C)ccc2ccccc12 [27/66] |  |
| < 100 | 18.4 | 61.3 | 0.3 | 116 | 0.35 | 40.9 |  |  |  | Cc1ccc2ccccc2c1C(=O)N(Cc1ccc(C(F)(F)F)o1)Cc1ncc(-c2cccc(C(C)(C)C(=O)O)c2)cc1Cl [27/78] |  |
| 100 to 1000 | 36.5 | 39.2 | 0.931 |  |  |  |  |  |  | Cc1nc2ccccc2c(C(=O)N(Cc2ccc(-c3cccc(C(C)(C)C(=O)O)c3)cc2)Cc2ccc(C(F)(F)F)o2)c1C [27/79] |  |
| 100 to 1000 | 43.2 | 50.8 | 0.849 |  |  |  |  |  |  | COc1c(C)nc2ccccc2c1C(=O)N(Cc1ccc(-c2cccc(C(C)(C)C(=O)O)c2)cc1)Cc1ccc(C(F)(F)F)o1 [27/81] |  |
| 100 to 1000 | 155 | 73.7 | 2.1 |  |  |  |  |  |  | Cc1nc2cccnc2c(C(=O)N(Cc2ccc(-c3cccc(C(C)(C)C(=O)O)c3)cc2)Cc2ccc(C(F)(F)F)o2)c1C [27/93] |  |
